Measured values taken from the supplement of paper PMC10627819.
Converted amounts (≈) assume the structure as drawn.

Key:
[1] = system: S. aureus DSM 20231; test: Bliss interaction score (quartile over a dose matrix) (fitness difference); higher = more antagonism (negative = synergy)
Method in brief: (§1)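 At entry into stationary phase, OD595 was recorded and divided by the robust mean of the no-drug wells on that plate, with any value above 1 set to 1. This gives the fitness measure used throughout. Single-drug fitness was inferred from combination data, and the Bliss score, observed minus product-expected fitness, is shown as quartiles across technical, biological and donor/recipient replicates.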

[2] = system: B. subtilis 168; test: as above
Method in brief: as §1

[3] = system: S. aureus Newman; test: as above
Method in brief: as §1

[4] = system: S. pneumoniae D39V; test: as above
Method in brief: as §1

[5] = system: S. aureus DSM 20231; test: fitness (endpoint OD595 vs no drug) (fraction); higher = more growth
Method in brief: (§2)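 At 37 °C, bacteria in TSB, LB Lennox or CY were grown in 384-well plates from a starting OD595 of 0.01. OD595 was measured every 30 min for 14 h, with the first reading used as background. Fitness is the optical density at the switch to stationary phase as a fraction of the robust mean of no-drug control wells, capped at 1.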

[6] = system: B. subtilis 168; test: as above
Method in brief: as §2

[7] = system: S. aureus Newman; test: as above
Method in brief: as §2

[8] = system: S. pneumoniae D39V; test: as above
Method in brief: as §2

[9] = system: S. aureus DSM 20231
[10] = system: B. subtilis 168
[11] = system: S. aureus Newman
[12] = system: S. pneumoniae D39V
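For Bliss interaction score (quartile over a dose matrix) in this document: first quartile when negative (synergy) and third quartile when positive (antagonism).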

COc1ccc(C[C@H](N)C(=O)N[C@H]2[C@@H](O)[C@H](n3cnc4c(N(C)C)ncnc43)O[C@@H]2CO)cc1 [Puromycin] + CN[C@@H]1[C@H](O)[C@H](NC)[C@H]2O[C@@]3(O)C(=O)C[C@@H](C)O[C@H]3O[C@@H]2[C@H]1O [Spectinomycin]
Conditions	Bliss interaction score
[1]	0.0575
[2]	0.0392
[3]	0.0745
[4]	0.0718

fitness
Conditions	first compound 0.39 µg/mL	first compound 0.78 µg/mL	first compound 1 µg/mL	first compound 1.56 µg/mL	first compound 2 µg/mL	first compound 4 µg/mL
[5], partner 4 µg/mL	0.959	0.943	–	0.965	–	–
[5], partner 8 µg/mL	0.957	0.998	–	0.956	–	–
[5], partner 16 µg/mL	0.943	0.884	–	0.888	–	–
[6], partner 2 µg/mL	0.951	0.94	–	0.979	–	–
[6], partner 4 µg/mL	0.948	0.952	–	0.963	–	–
[6], partner 8 µg/mL	0.859	0.881	–	0.848	–	–
[7], partner 4 µg/mL	0.912	0.922	–	0.964	–	–
[7], partner 8 µg/mL	0.962	0.95	–	0.937	–	–
[7], partner 16 µg/mL	0.914	0.904	–	0.873	–	–
[8], partner 4 µg/mL	–	–	0.931	–	0.951	0.772
[8], partner 8 µg/mL	–	–	0.877	–	0.892	0.728

one replicate
Conditions	fitness
[5], first compound 0.39 µg/mL, partner 32 µg/mL	0.741
[5], first compound 0.39 µg/mL, partner 64 µg/mL	0.11
[5], first compound 0.78 µg/mL, partner 32 µg/mL	0.802
[5], first compound 0.78 µg/mL, partner 64 µg/mL	0.172
[5], first compound 1.56 µg/mL, partner 32 µg/mL	0.757
[5], first compound 1.56 µg/mL, partner 64 µg/mL	0.142
[5], first compound 3.12 µg/mL, partner 4 µg/mL	0.923
[5], first compound 3.12 µg/mL, partner 8 µg/mL	0.948
[5], first compound 3.12 µg/mL, partner 16 µg/mL	0.794
[5], first compound 6.24 µg/mL, partner 4 µg/mL	0.629
[5], first compound 6.24 µg/mL, partner 8 µg/mL	0.347
[5], first compound 6.24 µg/mL, partner 16 µg/mL	0.183
[7], first compound 0.39 µg/mL, partner 32 µg/mL	0.664
[7], first compound 0.39 µg/mL, partner 64 µg/mL	0.15
[7], first compound 0.78 µg/mL, partner 32 µg/mL	0.618
[7], first compound 0.78 µg/mL, partner 64 µg/mL	0.0783
[7], first compound 1.56 µg/mL, partner 32 µg/mL	0.569
[7], first compound 1.56 µg/mL, partner 64 µg/mL	0.0656
[8], first compound 1 µg/mL, partner 16 µg/mL	0.867
[8], first compound 2 µg/mL, partner 16 µg/mL	0.863
[8], first compound 4 µg/mL, partner 16 µg/mL	0.613

COc1ccc(C[C@H](N)C(=O)N[C@H]2[C@@H](O)[C@H](n3cnc4c(N(C)C)ncnc43)O[C@@H]2CO)cc1 [Puromycin]
fitness
Conditions	0.39 µg/mL	0.78 µg/mL	1 µg/mL	1.56 µg/mL	2 µg/mL	4 µg/mL
[5]	≥ 1	≥ 1	–	≥ 1	–	–
[6]	0.931	0.929	–	0.94	–	–
[7]	0.985	0.993	–	≥ 1	–	–
[8]	–	–	≥ 1	–	0.977	0.76

Conditions	MIC [µg/mL]
[9]	1.8 (≈ 3.82 µM)
[10]	1.56 (≈ 3.31 µM)
[11]	1.8 (≈ 3.82 µM)
[12]	12.5 (≈ 26.5 µM)
